Where two headings read alike, the source gives them in different places.
Assays:
eyes of six rabbits = settings: cited from earlier work
rabbit eyes = settings: cited from earlier work
[1] = approximately 0.5% to 1% added to balanced salt solutions; cited from earlier work
human subjects = settings: formulation containing 7.6% of Ethylhexyl Stearate, cited from earlier work
skin = settings: 6-day cumulative, cited from earlier work
rabbit skin = settings: undiluted test material; cited from earlier work
rabbit's eyes = settings: cited from earlier work
demodex mites = assay: Presence of demodex mites in eyelash follicles of treated patients; format: in vivo, demodex folliculorum
[2] = system: Demodex folliculorum-associated Oculocutaneous Rosacea; settings: oral, child, JAMA Dermatol 2014; cited from earlier work
eye = settings: human, in vivo
Procedure: As this invention is to be used topically, good absorption is achieved by using Propylene Glycol as a solvent for the ivermectin. According to the Cosmetic Ingredients Report Panel Meeting on Jun. 28-29, 2010, the ocular irritation of Propylene Glycol was determined using groups of 6 males and female New Zealand white albino rabbits.

[3] = system: New Zealand white albino rabbits; settings: undiluted, groups of 6 rabbits; cited from earlier work

Cc1c(C)c2c(c(C)c1O)CCC(C)(CCCC(C)CCCC(C)CCCC(C)C)O2 (racemic) [dl-α-tocopherol]
conjunctival irritation (redness) (eyes of six rabbits; rabbit, in vivo): Weak to moderate conjunctival irritation
time by which conjunctival irritation subsided (eyes of six rabbits; rabbit, in vivo): ≤ 7 days
corneal changes (eyes of six rabbits; undiluted, six rabbits, eyes not rinsed): No corneal changes

O=C([O-])CN(CCN(CC(=O)[O-])CC(=O)O)CC(=O)O.[Na+].[Na+] [Disodium EDTA, disodium EDTA]
mucous membrane irritation classification (rabbit eyes): non-irritant

O=C(O)CN(CCN(CC(=O)O)CC(=O)O)CC(=O)O [EDTA, Ethylenediaminetetraacetic acid]
toxicity [1]: not toxic

CCCCCCCCCCCCCCCCCC(=O)OCC(CC)CCCC (centres unmarked) [Ethylhexyl Stearate]
phototoxicity (human subjects; 10 subjects): not phototoxic
photosensitisation (human subjects; 27 subjects, some slight reactions reported): not a photosensitizer
irritation and sensitization (human subjects; 56 subjects): not an irritant or sensitizer
mean maximum irritation index (MMII) (skin; 10% aqueous solution): 0.33
skin tolerance (skin; 10% aqueous solution): relatively well tolerated
mean maximum irritation index (MMII) (skin; undiluted test material): 0.67
skin tolerance (skin; undiluted test material): poorly tolerated
skin irritation (rabbit skin): at most mildly irritating
eye injury (rabbit's eyes; undiluted test material): did not provoke any significant injury
max Primary irritation Index (PII) (rabbit's eyes; undiluted, out of 100, at 1 h): 4.67

CC[C@H](C)[C@H]1O[C@]2(CC[C@@H]1C)C[C@@H]1C[C@@H](C/C=C(\C)[C@@H](O[C@H]3C[C@H](OC)[C@@H](O[C@H]4C[C@H](OC)[C@@H](O)[C@H](C)O4)[C@H](C)O3)[C@@H](C)/C=C/C=C3\CO[C@@H]4[C@H](O)C(C)=C[C@@H](C(=O)O1)[C@]34O)O2 [Ivermectin (Stromectol), ivermectin]
demodex mites (demodex mites; Example 2 patient, oral 12 mg plus 4 subsequent doses, with Tea Tree Oil eyelid scrubs twice a day, over 2 months): reduced in numbers but were not completely eliminated
elimination of demodex mites (demodex mites; oral, a single dose, applicant's experience): does not eliminate the demodex mites
treatment outcome [2]: successfully treated

CC(O)CO (centres unmarked) [Propylene Glycol]
eye irritation (eye): non-irritating
ocular irritation [3]: slight eye irritant

— patent publication US12257263B2, “Pharmaceutical compositions for demodex related blepharitis and eyelid crusting” (Tarsus Pharmaceuticals, Inc., priority 2014, dated 2025)
